The record followed here is PubChem BioAssay AID330 (DTP/NCI, 2004).

Molecules are shown by their SMILES. “And” between values parts separate entries of the source, which are not always exact repeats. Identical values can stand only once. Inconclusive results and toxic doses are left out.

In this assay the test system is P388 leukemia ip, CD2F1 mice, survival T/C. As to the kind of experiment: NCI In Vivo Anticancer Drug Screen. Data for tumor model P388 Leukemia (intraperitoneal) in CD2F1 (CDF1) mice. The note with it: endpoint: median survival time, higher = longer survival. In a few lines:
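Mice carrying the transplanted tumor received test compound or vehicle. Survival was recorded in each group, and the value is the treated-group measurement divided by that of the vehicle-treated control group.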

The mark [1] stands for this setting: dose: 50.0 mg/kg/injection, schedule: Q01DX005 (ip), vehicle: saline with Tween-80.
Where [2] appears, read: dose: 100.0 mg/kg/injection, schedule: Q01DX005 (ip), vehicle: saline with Tween-80.
Where [3] appears, read: dose: 200.0 mg/kg/injection, schedule: Q01DX005 (ip), vehicle: saline with Tween-80.
[4] abbreviates: dose: 50.0 mg/kg/injection, schedule: Q01DX009 (ip), vehicle: saline with Tween-80.
Setting [5] is: dose: 100.0 mg/kg/injection, schedule: Q01DX009 (ip), vehicle: saline with Tween-80.
Setting [6] is: dose: 200.0 mg/kg/injection, schedule: Q01DX009 (ip), vehicle: saline with Tween-80.

As for `O=C1OC(Oc2ccccc2OC2OC(=O)c3ccccc32)c2ccccc21` (stereo not given), the T/C by setting is: (dose: 60.0 mg/kg/injection, schedule: Q01DX005 (ip), vehicle: saline with Tween-80) 98 % of control; (dose: 120.0 mg/kg/injection, schedule: Q01DX005 (ip), vehicle: saline with Tween-80) 106 % of control; (dose: 240.0 mg/kg/injection, schedule: Q01DX005 (ip), vehicle: saline with Tween-80) 100 % of control.
`Brc1ccc(Nc2nnc3nc(-c4ccccc4)c(-c4ccccc4)nn23)cc1`: the T/C is 89 % of control under setting [1], 89 % of control under setting [2] and 97 % of control under setting [3].
`COC(=O)c1nc(Cl)[nH]c1CC#N`: the T/C was 103 % of control (dose: 50.0 mg/kg/injection, schedule: Q01DX005 (ip), vehicle: saline); 112 % of control (dose: 100.0 mg/kg/injection, schedule: Q01DX005 (ip), vehicle: saline); 105 % of control (dose: 200.0 mg/kg/injection, schedule: Q01DX005 (ip), vehicle: saline).
Regarding `N#C/C(=C/c1ccccc1)c1ccccc1`, the T/C under setting [4] was 87 % of control; the T/C under setting [5] is 88 % of control; the T/C under setting [6] was 88 % of control; the T/C (dose: 400.0 mg/kg/injection, schedule: Q01DX009 (ip), vehicle: saline with Tween-80) was 102 % of control.
For `CC12CCC3C(CCC4CC(O)CCC43C)C1CC(C1(O)C(=O)Nc3ccccc31)C2=O` (stereo not given), the T/C runs as follows: (dose: 25.0 mg/kg/injection, schedule: Q01DX009 (ip), vehicle: saline with Tween-80) 94 % of control; under setting [4], 88 % of control; under setting [5], 94 % of control.
For `CC(C)NC(C)C(C)c1ccccc1` (stereo not given), the T/C was 99 % of control (dose: 25.0 mg/kg/injection, schedule: Q04DX003 (ip), vehicle: saline); 94 % of control (dose: 50.0 mg/kg/injection, schedule: Q01DX001 (ip), vehicle: saline); 100 % of control (dose: 50.0 mg/kg/injection, schedule: Q04DX003 (ip), vehicle: saline); 96 % of control (dose: 100.0 mg/kg/injection, schedule: Q01DX001 (ip), vehicle: saline); 93 % of control (dose: 100.0 mg/kg/injection, schedule: Q04DX003 (ip), vehicle: saline).
As to `CCOC(=O)N(O)c1ccc(C(N)=O)cc1`, the T/C runs as follows: under setting [4], 100 % of control; under setting [5], 97 % of control; under setting [6], 108 % of control.
Turning to `COc1cccc2cc3c(cc12)C(=O)C(C)=C(C)C3=O`, the T/C was 94 % of control (dose: 100.0 mg/kg/injection, schedule: Q04DX003 (ip), vehicle: Klucel (hydroxypropylcellulose) (HPC)); 97 % of control (dose: 200.0 mg/kg/injection, schedule: Q04DX003 (ip), vehicle: Klucel (hydroxypropylcellulose) (HPC)); 109 % of control (dose: 400.0 mg/kg/injection, schedule: Q04DX003 (ip), vehicle: Klucel (hydroxypropylcellulose) (HPC)).
Regarding `Nc1ncnc2nc[nH]c12`, the T/C runs as follows: (dose: 16.0 mg/kg/injection, schedule: Q01DX009 (ip), vehicle: Klucel (hydroxypropylcellulose) (HPC)) 100 % of control; (dose: 32.0 mg/kg/injection, schedule: Q01DX009 (ip), vehicle: Klucel (hydroxypropylcellulose) (HPC)) 103 % of control and 108 % of control and 109 % of control; (dose: 32.0 mg/kg/injection, schedule: Q01DX009 (ip), vehicle: saline with Tween-80) 106 % of control and 118 % of control; under setting [4], 99 % of control; (dose: 64.0 mg/kg/injection, schedule: Q01DX009 (ip), vehicle: Klucel (hydroxypropylcellulose) (HPC)) 106 % of control; (dose: 64.0 mg/kg/injection, schedule: Q01DX009 (ip), vehicle: saline with Tween-80) 111 % of control and 97 % of control. Also, the T/C by setting is: under setting [5], 114 % of control; (dose: 128.0 mg/kg/injection, schedule: Q01DX009 (ip), vehicle: Klucel (hydroxypropylcellulose) (HPC)) 110 % of control; (dose: 128.0 mg/kg/injection, schedule: Q01DX009 (ip), vehicle: saline with Tween-80) 100 % of control and 108 % of control; under setting [6], 110 % of control; (dose: 256.0 mg/kg/injection, schedule: Q01DX009 (ip), vehicle: Klucel (hydroxypropylcellulose) (HPC)) 88 % of control; (dose: 256.0 mg/kg/injection, schedule: Q01DX009 (ip), vehicle: saline with Tween-80) 118 % of control.
Turning to `CCOC(=O)C1=C(C)NC(C)=C(C(=O)OCC)C1c1ccncc1`, the T/C reads like this: (dose: 25.0 mg/kg/injection, schedule: Q01DX009 (ip), vehicle: other) 103 % of control; (dose: 50.0 mg/kg/injection, schedule: Q01DX009 (ip), vehicle: other) 89 % of control; (dose: 100.0 mg/kg/injection, schedule: Q01DX009 (ip), vehicle: other) 96 % of control; (dose: 200.0 mg/kg/injection, schedule: Q01DX009 (ip), vehicle: other) 97 % of control; (dose: 400.0 mg/kg/injection, schedule: Q01DX009 (ip), vehicle: other) 95 % of control.
Take `CCCCOC1OCN(CCC)CC1(C)C` (stereo not given): the T/C is, setting by setting: under setting [4], 111 % of control and 113 % of control; under setting [5], 122 % of control.
With `O=C1C2C3C=CC(O3)C2C(=O)N1N=C1CCCCC1` (stereo not given), the T/C is, setting by setting: under setting [1], 99 % of control; under setting [2], 101 % of control; under setting [3], 101 % of control.
Turning to `Oc1c2c(c3cccc4cccc1c43)=Nc1ccccc1S2`, the T/C by setting is: under setting [1], 95 % of control; under setting [2], 94 % of control; under setting [3], 90 % of control.
For the compound `COc1cccc2c1C(=O)c1c(O)c3c(c(O)c1C2=O)C[C@@](O)(c1csc(N)n1)C[C@@H]3OC1CC(N)C(O)C(C)O1` (stereo not given in full), the T/C (dose: 1.56 mg/kg/injection, schedule: Q01DX009 (ip), vehicle: water) is 150 % of control; the T/C (dose: 6.25 mg/kg/injection, schedule: Q01DX009 (ip), vehicle: water) is 157 % of control and 160 % of control; the T/C (dose: 6.25 mg/kg/injection, schedule: Q04DX003 (ip), vehicle: water) was 96 % of control; the T/C (dose: 12.5 mg/kg/injection, schedule: Q01DX009 (ip), vehicle: water) was 155 % of control and 163 % of control; the T/C (dose: 12.5 mg/kg/injection, schedule: Q04DX003 (ip), vehicle: water) is 105 % of control and 109 % of control; the T/C (dose: 25.0 mg/kg/injection, schedule: Q01DX009 (ip), vehicle: water) was 178 % of control. The T/C was 118 % of control (dose: 25.0 mg/kg/injection, schedule: Q04DX003 (ip), vehicle: water) and 123 % of control (dose: 100.0 mg/kg/injection, schedule: Q04DX003 (ip), vehicle: water).
For the compound `CNC(=O)OCc1c(COC(=O)NC)c2n(c1-c1ccc(Cl)c(Cl)c1)CCS2(=O)=O`, the T/C is 108 % of control (dose: 25.0 mg/kg/injection, schedule: Q01DX005 (ip), vehicle: saline with Tween-80); 92 % of control under setting [1]; 88 % of control under setting [2]; 92 % of control under setting [3].
Consider `CC[As](CC)SC1OC(C2COC(C)(C)O2)C2OC(C)(C)OC12` (stereo not given), for which the T/C is 120 % of control (dose: 12.5 mg/kg/injection, schedule: Q01DX009 (ip), vehicle: distilled water + Tween-80); 123 % of control (dose: 25.0 mg/kg/injection, schedule: Q01DX009 (ip), vehicle: distilled water + Tween-80); 120 % of control (dose: 50.0 mg/kg/injection, schedule: Q01DX009 (ip), vehicle: distilled water + Tween-80).
For the compound `O=C(Nc1ccc(S(=O)(=O)F)cc1)c1ccc2ccccc2c1O`, the T/C was 103 % of control (dose: 50.0 mg/kg/injection, schedule: Q01DX009 (ip), vehicle: Klucel (hydroxypropylcellulose) (HPC)); 94 % of control (dose: 100.0 mg/kg/injection, schedule: Q01DX009 (ip), vehicle: Klucel (hydroxypropylcellulose) (HPC)); 91 % of control (dose: 200.0 mg/kg/injection, schedule: Q01DX009 (ip), vehicle: Klucel (hydroxypropylcellulose) (HPC)).
In the case of `CCn1c2nc(=O)n(C)c(=O)c-2[n+]([O-])c2cc(C)ccc21`, the T/C is, setting by setting: (dose: 6.25 mg/kg/injection, schedule: Q04DX003 (ip), vehicle: saline with Tween-80) 88 % of control; (dose: 12.5 mg/kg/injection, schedule: Q04DX003 (ip), vehicle: saline with Tween-80) 86 % of control; (dose: 25.0 mg/kg/injection, schedule: Q04DX003 (ip), vehicle: saline with Tween-80) 88 % of control; (dose: 50.0 mg/kg/injection, schedule: Q04DX003 (ip), vehicle: saline with Tween-80) 86 % of control.
With `Cc1cc(NC(=O)C(=O)C(C#N)c2cccc(Cl)c2)no1` (stereo not given), the T/C was 100 % of control under setting [1], 101 % of control under setting [2] and 108 % of control under setting [3].
For the compound `CC(=O)OC1CCC2(C)C(C1)CC(OC(C)=O)C1C2CC(OC(C)=O)C2(C)C(C(C)CC=C(c3ccccc3)c3ccccc3)CCC12` (stereo not given), the T/C is, setting by setting: under setting [4], 100 % of control; under setting [5], 98 % of control; under setting [6], 99 % of control.
